Data on 12 molecules can be found in patent US10508103B2, “Benzimidazole-linked indole compound acting as novel divalent IAP antagonist” (MEDSHINE DISCOVERY INC., priority 2016, dated 2019).

Each structure is given as a SMILES string.

A word on the EC50: it is the concentration needed to bring the measured effect to its halfway point. Read a high EC50 as weaker potency. As a reminder, the IC50 is the point on the concentration scale where inhibition reaches its midpoint.

Experiment [1] has as its system NF-κB Luciferase Reporter Hela cells. Put plainly: TNF-α inducing NF-κB reporter. The format is cell-based. The settings on record: Homo sapiens, 6 h, Table 3, 20 ng/mL TNF-α, Bright-Glo luciferase, values given as ranges. The procedure: Biological Assay 2: TNF-α inducing NF-κB reporter
• 1) tested compounds were added into DMSO to give parent liquor (10 mM); • 2) reference compound Birinapant (32 μL, 10 mM) was added into DMSO (128 μL) to give a solution (2 mM); • 3) 0.5 μL reference compound Birinapant (2 mM) and tested compounds (10 mM) were taken by Echo and added into Greiner 96 well black cell culture plate respectively. The initial concentration of the reference compound and tested compound was 10 μM and 50 μM, respectively. Then, the reference compound and tested compounds were diluted at 9 points in series by 5-fold; and every plate was repeated for 3 times. • 4) the reference compound WXFL2012A001 (Birinapant) (final concentration: 10 μM) as HPE and DMSO (final concentration: 0.5%) as ZPE.
• 5) purpose of the three repeated plates: the first plate was used for testing compounds' activity;
the second plate was used for testing cytotoxicity of the compounds; the third plate was used for solution replacement of the first and second plates: mixing inducer TNF-α and medium containing 0.1% FBS, and then being added to the third plate and the resultant mixture was transferred to the first plate where supernatants had been removed.
• 1) removing medium in NF-iBLuciferase Reporter Hela cell culture flask and washing cell once with PBS (10 mL) • 2) adding 0.25% pancreatin (3 mL) to T150 cell culture flask, and placinginto cell incubator (37° C., 5%CO2) and dissociating cell for 3 min, and then medium (10 mL) was added to end dissociation and blowing cells with electric pipette until cells were dispersed into single cell. • 3) Calculating cell density with cell counter Countstar • 4) Adjusting NF-κB Luciferase Reporter Hela density with medium to 2.0×10^5 cells/mL • 5) Adding cells to two Greiner 96 well black cell culture plates containing compounds, (100 μL per well (2.0×10^4 cells/well)), one plate was used for testing compounds' activity, another was used for testing cytotoxicity of the compounds. • 6) Placing cell culture plates into cell incubator (37° C., 5%CO2) and incubatingfor 24 h Second Day TNF-α Inducing • 1) TNF-α (100 μg/mL) was diluted into 20 ng/mL with 0.1% FBS medium and transferredto the third plate with 100 μL per well • 2) Removing medium of the first 96 well black cell culture plate (compound activity testing plate) after 24 h, replacing with fresh medium containing the compound and 20 ng/mL TNF-α in the third plate • 3) Placing cell culture plate into cell incubator (37° C., 5% CO2) and incubatingfor 6 h • 4) after 6 h, compound's activity in the first plate was tested according to Bright-Glo (Promega) manual method, luciferase signal in each well was tested by Envision plate reader • 5) compound's cytotoxicity in the second plate was tested according to ATPlite 1Step (Perkin Elmer) manual method, luciferase signal in each well was tested by Envision plate reader • 6) analyzing with software to obtain EC50 of compound.

The target in another experiment is XIAP-BIR3 Protein (Homo sapiens (Human), UniProt P98170). Put plainly: Fluorescence polarization affinity of compounds to XIAP-BIR3. The format is binding. The settings on record: XIAP-BIR3 30 nM; 5 nM ARPFAQ-K(5-FAM)-NH2 probe; FP; pH 7.5; read-out: affinity to target protein in vitro, XIAP-BIR3 Protein (IC50). As to the method:
(§1) Biological Assay 1: affinity of compounds to cIAP1-BIR3, cIAP2-BIR3, XIAP-BIR3 • 1) Affinity of compounds listed in table to cIAP1-BIR3, Ciap2-BIR3, XIAP-BIR3 was tested referring to Nikolovska-Colesks, Z. et.Al. (Analytical Biochemistry,2004,232:261-273) to obtain IC50 value. Generally speaking, in 10-dose IC50 mode, IAP antagonists with different concentrations were diluted in series by 3-fold and fluorescence labelled ARPFAQ-K (5-FAM)-NH2 peptide was used as probe to test compounds binding to protein BIR3 domain. • 2) Test condition: cIAP1-BIR3: 20 nM; cIAP2-BIR3: 60 nM; XIAP-BIR3: 30 nM; 5 nM probe in 100 mM tripotassium phosphate, pH 7.5, 0.1 mg/mL BSA, 0.005% Triton X100 and 0.5% DMSO. • 3) Test procedure: compounds were added into protein with different concentrations by using ECHO (LabCyte), and then the mixture was preincubated for 15 min. The probe was added and the final concentration was 5 nM. After incubating for 60 min, FP was tested and mP was calculated. Experiment results were list in table 1.

A further experiment addresses cIAP1-BIR3 Protein (Homo sapiens (Human), UniProt Q13490). The experiment can be described thus: Fluorescence polarization affinity of compounds to cIAP1-BIR3. The format is binding. Particulars: cIAP1-BIR3 20 nM; 5 nM ARPFAQ-K(5-FAM)-NH2 probe; FP; pH 7.5; read-out: affinity to target protein in vitro, cIAP1-BIR3 Protein (IC50). The procedure:
as §1

The target of the next experiment is cIAP2-BIR3 Protein (Homo sapiens (Human), UniProt Q13489). The experiment can be described thus: Fluorescence polarization affinity of compounds to cIAP2-BIR3. The format is binding. Particulars: cIAP2-BIR3 60 nM; 5 nM ARPFAQ-K(5-FAM)-NH2 probe; FP; pH 7.5; read-out: affinity to target protein in vitro, cIAP2-BIR3 Protein (IC50). As to the method:
as §1

Chain of cIAP1-BIR3 Protein (Q13490 253-363): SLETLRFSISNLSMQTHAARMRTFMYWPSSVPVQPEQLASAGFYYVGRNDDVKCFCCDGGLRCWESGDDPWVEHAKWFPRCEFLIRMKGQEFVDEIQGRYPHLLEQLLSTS
Chain of cIAP2-BIR3 Protein (Q13489 238-349): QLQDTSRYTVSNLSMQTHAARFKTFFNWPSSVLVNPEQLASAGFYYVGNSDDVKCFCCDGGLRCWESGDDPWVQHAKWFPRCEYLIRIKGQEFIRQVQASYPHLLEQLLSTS
Chain of XIAP-BIR3 Protein (P98170 241-356): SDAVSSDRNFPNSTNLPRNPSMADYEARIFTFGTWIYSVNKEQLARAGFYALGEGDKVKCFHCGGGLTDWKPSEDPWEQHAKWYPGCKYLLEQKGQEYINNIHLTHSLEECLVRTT

In experiment [1], `CN[C@@H](C)C(=O)N[C@H](C(=O)N1C[C@@H](F)C[C@H]1Cc1c(-c2nc3cc(F)ccc3n2C[C@@H]2C[C@H](F)CN2C(=O)[C@@H](NC(=O)[C@H](C)NC)C(C)(C)C)[nH]c2cc(F)ccc12)C1CC1` [Embodiment 29] returned an EC50 below 10 nM. The IC50 at XIAP-BIR3 Protein is 10 to 100 nM; at cIAP1-BIR3 Protein, below 10 nM; at cIAP2-BIR3 Protein it was 10 to 100 nM.
The molecule `CN[C@@H](C)C(=O)N[C@H](C(=O)N1C[C@@H](F)C[C@H]1Cc1c(-c2nc3cc(F)ccc3n2C[C@@H]2C[C@H](F)CN2C(=O)[C@@H](NC(=O)[C@H](C)NC)C2CCCCC2)[nH]c2cc(F)ccc12)C1CC1` [Embodiment 30] returned a concentration for a half-maximal effect (EC50) in experiment [1] below 10 nM. For the same molecule, the IC50 at XIAP-BIR3 Protein was 10 to 100 nM; at cIAP1-BIR3 Protein, below 10 nM; at cIAP2-BIR3 Protein, 10 to 100 nM.
Take `CC[C@H](NC(=O)[C@H](C)NC)C(=O)N1C[C@@H](F)C[C@H]1Cc1c(-c2nc3cc(F)ccc3n2C[C@@H]2C[C@H](F)CN2C(=O)[C@@H](NC(=O)[C@H](C)NC)C2CC2)[nH]c2cc(F)ccc12` [Embodiment 31]: the EC50 in experiment [1] lay in the range of 10 to 100 nM. For the same molecule, the IC50 at XIAP-BIR3 Protein was 10 to 100 nM; on cIAP1-BIR3 Protein, below 10 nM; at cIAP2-BIR3 Protein, 10 to 100 nM.
`CCC[C@H](NC(=O)[C@H](C)NC)C(=O)N1C[C@@H](F)C[C@H]1Cc1c(-c2nc3cc(F)ccc3n2C[C@@H]2C[C@H](F)CN2C(=O)[C@@H](NC(=O)[C@H](C)NC)C(C)C)[nH]c2cc(F)ccc12` [Embodiment 32] registered an EC50 in experiment [1] below 10 nM. Besides, the IC50 at XIAP-BIR3 Protein is 10 to 100 nM; at cIAP1-BIR3 Protein, below 10 nM; on cIAP2-BIR3 Protein it was 10 to 100 nM.
Regarding `CCC[C@H](NC(=O)[C@H](C)NC)C(=O)N1C[C@@H](F)C[C@H]1Cn1c(-c2[nH]c3cc(F)ccc3c2C[C@@H]2C[C@H](F)CN2C(=O)[C@@H](NC(=O)[C@H](C)NC)C2CCCCC2)nc2cc(F)ccc21` [Embodiment 36], in experiment [1], the EC50 was below 10 nM. In addition, the figures for the half-inhibitory concentration (IC50) at XIAP-BIR3 Protein, on cIAP1-BIR3 Protein and on cIAP2-BIR3 Protein were 10 to 100 nM, below 10 nM and 10 to 100 nM, respectively.
Molecule `CC[C@H](NC(=O)[C@H](C)NC)C(=O)N1CCC[C@H]1Cc1c(-c2nc3cc(F)ccc3n2C[C@@H]2C[C@H](F)CN2C(=O)[C@@H](NC(=O)[C@H](C)NC)C(C)(C)C)[nH]c2cc(F)ccc12` [Embodiment 38] gave an EC50 in experiment [1] below 10 nM. Besides, the IC50 is below 10 nM at XIAP-BIR3 Protein, below 10 nM on cIAP1-BIR3 Protein and 10 to 100 nM at cIAP2-BIR3 Protein.
In experiment [1], `CC[C@H](NC(=O)[C@H](C)NC)C(=O)N1C[C@@H](F)C[C@H]1Cc1c(-c2nc3cc(F)ccc3n2C[C@@H]2CCCN2C(=O)[C@@H](NC(=O)[C@H](C)NC)C(C)C)[nH]c2cc(F)ccc12` [Embodiment 39] displayed an EC50 of 10 to 100 nM. Moreover, the IC50 on XIAP-BIR3 Protein was below 10 nM; at cIAP1-BIR3 Protein, below 10 nM; at cIAP2-BIR3 Protein, 10 to 100 nM.
Consider `CC[C@H](NC(=O)[C@H](C)NC)C(=O)N1C[C@@H](F)C[C@H]1Cc1c(-c2nc3cc(F)ccc3n2C[C@@H]2CCCN2C(=O)[C@@H](NC(=O)[C@H](C)NC)C(C)(C)C)[nH]c2cc(F)ccc12` [Embodiment 40], for which the concentration giving a half-maximal response (EC50) in experiment [1] is below 10 nM. Also, the IC50 at XIAP-BIR3 Protein was 10 to 100 nM; on cIAP1-BIR3 Protein, below 10 nM; on cIAP2-BIR3 Protein, 10 to 100 nM.
As to `CC[C@H](NC(=O)[C@H](C)NC)C(=O)N1CCC[C@H]1Cn1c(-c2[nH]c3cc(F)ccc3c2C[C@@H]2C[C@H](F)CN2C(=O)[C@@H](NC(=O)[C@H](C)NC)C(C)(C)C)nc2cc(F)ccc21` [Embodiment 42], the half-maximal effective concentration (EC50) in experiment [1] was 10 to 100 nM. The values for the IC50 at XIAP-BIR3 Protein, on cIAP1-BIR3 Protein and at cIAP2-BIR3 Protein were below 10 nM, below 10 nM and 10 to 100 nM, respectively.
Regarding `CC[C@H](NC(=O)[C@H](C)NC)C(=O)N1CC(F)(F)C[C@H]1Cc1c(-c2nc3cc(F)ccc3n2C[C@@H]2CC(F)(F)CN2C(=O)[C@H](CC)NC(=O)[C@H](C)NC)[nH]c2cc(F)ccc12` [Embodiment 43], the EC50 in experiment [1] is above 100 nM. Besides, the concentration for half-maximal inhibition (IC50) at XIAP-BIR3 Protein, on cIAP1-BIR3 Protein and at cIAP2-BIR3 Protein was 10 to 100 nM in each case.
Regarding `CN[C@@H](C)C(=O)N[C@H](C(=O)N1CC(F)(F)C[C@H]1Cc1c(-c2nc3cc(F)ccc3n2C[C@@H]2CC(F)(F)CN2C(=O)[C@@H](NC(=O)[C@H](C)NC)C2CC2)[nH]c2cc(F)ccc12)C1CC1` [Embodiment 44], the 50% effective concentration (EC50) in experiment [1] is above 100 nM. Besides, the IC50 on XIAP-BIR3 Protein was below 10 nM; at cIAP1-BIR3 Protein, below 10 nM; on cIAP2-BIR3 Protein it was 10 to 100 nM.
`CC[C@H](NC(=O)[C@H](C)NC)C(=O)N1CC(F)(F)C[C@H]1Cc1c(-c2nc3cc(F)ccc3n2C[C@@H]2CC(F)(F)CN2C(=O)[C@@H](NC(=O)[C@H](C)NC)C(C)C)[nH]c2cc(F)ccc12` [Embodiment 46] showed an EC50 in experiment [1] of 10 to 100 nM. Besides, the IC50 at XIAP-BIR3 Protein is 10 to 100 nM; on cIAP1-BIR3 Protein, below 10 nM; at cIAP2-BIR3 Protein, 10 to 100 nM.
